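Following 48 hours of exposure in 96-well plates, responses at five concentrations were used to interpolate endpoints linearly. GI50 is the concentration that inhibits growth by half.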 Calls of active or inactive are those of the source. No stated cut-off is given here; in the data, active = GI50 up to about 1.1 µM and inactive = higher.
Columns and labels:
Assay in all cases: inhibition of tumour cell growth, NCI panel, 48 h
OVCAR-8 = system: OVCAR-8
HOP-62 = system: HOP-62
A549 = system: A549
786-0 = system: 786-0
A498 = system: A498
Hs-578T = system: Hs-578T
DLD-1 = system: DLD-1
IGROV-1 = system: IGROV-1
SNB-19 = system: SNB-19
MDA-N = system: MDA-N
EKVX = system: EKVX
M14 = system: M14
UACC-257 = system: UACC-257
UACC-62 = system: UACC-62
T47D = system: T47D
NCI-H226 = system: NCI-H226
SK-MEL-28 = system: SK-MEL-28
NCI/ADR-RES = system: NCI/ADR-RES
SF-295 = system: SF-295
UO-31 = system: UO-31

Compound: O=C1c2cc([N+](=O)[O-])cc3cc([N+](=O)[O-])cc(c23)C(=O)N1CCCNCCNCCCN1C(=O)c2cc([N+](=O)[O-])cc3cc([N+](=O)[O-])cc(c23)C1=O
- GI50 (OVCAR-8): 84.1 nM (active)
- GI50 (HOP-62): 185 nM (active)
- GI50 (A549): 29.4 nM (active)
- GI50 (786-0): 87.9 nM (active)
- GI50 (A498): 769 nM (active)
- GI50 (Hs-578T): 106 nM (active)
- GI50 (DLD-1): 28.2 nM (active)
- GI50 (IGROV-1): 30.1 nM (active)
- GI50 (SNB-19): 326 nM (active)
- GI50 (MDA-N): 752 nM (active)
- GI50 (EKVX): 1050 nM (active)
- GI50 (M14): 384 nM (active)
- GI50 (UACC-257): 490 nM (active)
- GI50 (UACC-62): 302 nM (active)
- GI50 (T47D): 587 nM (active)
- GI50 (NCI-H226): 64.1 nM (active)
- GI50 (SK-MEL-28): 233 nM (active)
- GI50 (NCI/ADR-RES): 1340 nM (inactive)
- GI50 (SF-295): 46.2 nM (active)
- GI50 (UO-31): 375 nM (active)
